# Assay results as given in ChEMBL document CHEMBL1201862, “PubChem BioAssay data set” (2004).
#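 How tested: cells in 96-well plates exposed to compound for 48 hours at five concentrations. The concentration for 50% growth inhibition is given as GI50.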 The source made the active and inactive calls. Rule as the data show it: active = GI50 up to about 1.1 µM and inactive = higher.
# How the values were obtained:
# Test in all cases: NCI tumour cell line growth inhibition, 48 h
# NCI/ADR-RES = system: NCI/ADR-RES
# OVCAR-8 = system: OVCAR-8
# MCF7 = system: MCF7
# UACC-62 = system: UACC-62
# MDA-MB-435 = system: MDA-MB-435
# SK-OV-3 = system: SK-OV-3
# SN12C = system: SN12C
# K562 = system: K562
# SK-MEL-28 = system: SK-MEL-28
# RXF 393 = system: RXF 393
# SF-268 = system: SF-268
# UACC-257 = system: UACC-257
# RPMI-8226 = system: RPMI-8226
# NCI-H522 = system: NCI-H522
# Malme-3M = system: Malme-3M
# HT-29 = system: HT-29
# HCC 2998 = system: HCC 2998
# TK-10 = system: TK-10
# SW-620 = system: SW-620
# SNB-75 = system: SNB-75
Structure (SMILES),GI50 (NCI/ADR-RES),GI50 (OVCAR-8),GI50 (MCF7),GI50 (UACC-62),GI50 (MDA-MB-435),GI50 (SK-OV-3),GI50 (SN12C),GI50 (K562),GI50 (SK-MEL-28),GI50 (RXF 393),GI50 (SF-268),GI50 (UACC-257),GI50 (RPMI-8226),GI50 (NCI-H522),GI50 (Malme-3M),GI50 (HT-29),GI50 (HCC 2998),GI50 (TK-10),GI50 (SW-620),GI50 (SNB-75)
Cc1cc(C)nc(NS(=O)(=O)c2ccc(Nc3c4ccccc4nc4ccc(C(=O)Nc5ccc(S(=O)(=O)N=C(N)N)cc5)cc34)cc2)n1,> 100 µM (inactive),> 100 µM (inactive),23.2 µM (inactive),> 100 µM (inactive),48.4 µM (inactive),> 100 µM (inactive),97.7 µM (inactive),25.2 µM (inactive),> 100 µM (inactive),50.8 µM (inactive),69.5 µM (inactive),72.3 µM (inactive),35.7 µM (inactive),65.8 µM (inactive),30.7 µM (inactive),59.4 µM (inactive),> 100 µM (inactive),> 100 µM (inactive),48.4 µM (inactive),> 100 µM (inactive)
Cc1c(Cl)c(C)c(Cl)c(O)c1Cl,22.2 µM (inactive),30.3 µM (inactive),31.6 µM (inactive),16.7 µM (inactive),18.9 µM (inactive),26.5 µM (inactive),24.2 µM (inactive),17.5 µM (inactive),38.4 µM (inactive),26 µM (inactive),26.7 µM (inactive),22.1 µM (inactive),17.3 µM (inactive),17.9 µM (inactive),15.2 µM (inactive),48.5 µM (inactive),19.8 µM (inactive),22.1 µM (inactive),34.3 µM (inactive),23.9 µM (inactive)
C=CC(COC(=O)C(C)(C)OC(C)=O)c1ccc(OC(=O)C(C)C)c(OC)c1 (stereo not given),11 µM (inactive),9.82 µM (inactive),2.51 µM (inactive),11.8 µM (inactive),8.91 µM (inactive),16.5 µM (inactive),3.34 µM (inactive),30.5 µM (inactive),5.19 µM (inactive),6.07 µM (inactive),5.2 µM (inactive),14.6 µM (inactive),3.78 µM (inactive),2.23 µM (inactive),2.7 µM (inactive),3.27 µM (inactive),3.66 µM (inactive),8.57 µM (inactive),4.84 µM (inactive),7.16 µM (inactive)
CN(C)CCOc1ccc2[nH]c(C(=O)N3CC(CCl)c4ccc(N)cc43)cc2c1 (stereo not given),0.0933 µM (active),0.0912 µM (active),0.0266 µM (active),0.0753 µM (active),0.0871 µM (active),1.94 µM (inactive),0.108 µM (active),0.0533 µM (active),0.126 µM (active),0.0182 µM (active),0.0375 µM (active),0.151 µM (active),0.228 µM (active),0.0154 µM (active),0.164 µM (active),< 0.0358 µM (active),0.0535 µM (active),0.29 µM (active),0.121 µM (active),0.112 µM (active)
O=C(N[C@H](CO)[C@H](O)c1ccc([N+](=O)[O-])cc1)C(Cl)Cl [CHLORAMPHENICOL],> 100 µM (inactive),> 100 µM (inactive),> 100 µM (inactive),> 100 µM (inactive),> 100 µM (inactive),> 100 µM (inactive),> 100 µM (inactive),> 100 µM (inactive),> 100 µM (inactive),> 100 µM (inactive),> 100 µM (inactive),> 100 µM (inactive),> 100 µM (inactive),> 100 µM (inactive),> 100 µM (inactive),> 100 µM (inactive),> 100 µM (inactive),> 100 µM (inactive),> 100 µM (inactive),98.2 µM (inactive)
CN(C)/N=N/c1[nH]cnc1C(N)=O [DACARBAZINE],66.4 µM (inactive),44.5 µM (inactive),89.7 µM (inactive),35.3 µM (inactive),84.5 µM (inactive),20.6 µM (inactive),78.7 µM (inactive),16 µM (inactive),86.5 µM (inactive),82.8 µM (inactive),63.8 µM (inactive),49.8 µM (inactive),19.1 µM (inactive),67.1 µM (inactive),41.5 µM (inactive),87.7 µM (inactive),45.8 µM (inactive),41.6 µM (inactive),55.1 µM (inactive),35.7 µM (inactive)
